How the values were obtained:
Capivasertib = compound: C1CN(CCC1(C(=O)N[C@@H](CCO)C2=CC=C(C=C2)Cl)N)C3=NC=NC4=C3C=CN4 [Capivasertib]; details: max 10 µM
Procedure, shortened: (§1)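 Cancer cell lines were seeded into 1536-well plates in 7.5 μl medium (DMEM/F12 or RPMI, 10% FBS), held 24 hours at 37°C and 5% CO2, and dosed for 72 hours with final DMSO typically 0.2%. Luminescence from CellTiter-Glo 2.0, scaled between blank-well and DMSO-well means, served as viability. The single-agent IC50 was obtained from dose-response fits with a non-linear mixed effects model, each fit being a two-parameter logistic curve.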

AZD1775 = compound: C=CCn1c(=O)c2cnc(Nc3ccc(N4CCN(C)CC4)cc3)nc2n1-c1cccc(C(C)(C)O)n1 [AZD1775]; details: max 3 µM
Procedure, shortened: as §1

Trametinib = compound: CC(=O)Nc1cccc(-n2c(=O)n(C3CC3)c(=O)c3c(Nc4ccc(I)cc4F)n(C)c(=O)c(C)c32)c1 [Trametinib]; details: max 1 µM
Procedure, shortened: as §1

Palbociclib = compound: CC(=O)c1c(C)c2cnc(Nc3ccc(N4CCNCC4)cn3)nc2n(C2CCCC2)c1=O [Palbociclib]; details: max 10 µM
Procedure, shortened: as §1

AZD1390 = compound: CC(C)n1c(=O)n(C)c2cnc3cc(F)c(-c4ccc(OCCCN5CCCCC5)nc4)cc3c21 [AZD1390]; details: max 0.3 µM
Procedure, shortened: as §1

Venetoclax = compound: CC1(C)CCC(CN2CCN(c3ccc(C(=O)NS(=O)(=O)c4ccc(NCC5CCOCC5)c([N+](=O)[O-])c4)c(Oc4cnc5[nH]ccc5c4)c3)CC2)=C(c2ccc(Cl)cc2)C1 [Venetoclax]; details: max 1 µM
Procedure, shortened: as §1

Dasatinib = compound: CC1=C(C(=CC=C1)Cl)NC(=O)C2=CN=C(S2)NC3=CC(=NC(=N3)C)N4CCN(CC4)CCO [Dasatinib]; details: max 2 µM
Procedure, shortened: as §1

SG3199 = compound: CC1=CN2[C@@H](C1)C=NC3=CC(=C(C=C3C2=O)OC)OCCCCCOC4=C(C=C5C(=C4)N=C[C@@H]6CC(=CN6C5=O)C)OC [SG3199]; details: max 0.001 µM
Procedure, shortened: as §1

AZD2811 = compound: CCN(CCO)CCCOc1ccc2c(Nc3cc(CC(=O)Nc4cccc(F)c4)[nH]n3)ncnc2c1 [AZD2811]; details: max 1 µM
Procedure, shortened: as §1

SN-38 = compound: CCc1c2c(nc3ccc(O)cc13)-c1cc3c(c(=O)n1C2)COC(=O)[C@]3(O)CC [SN-38]; details: max 0.3 µM
Procedure, shortened: as §1

AZD0156 = compound: CN(C)CCCOc1ccc(-c2ccc3ncc4c(c3c2)n(C2CCOCC2)c(=O)n4C)cn1 [AZD0156]; details: max 3 µM
Procedure, shortened: as §1

AZD4320 = compound: CN(CC[C@H](CSC1=CC=CC=C1)NC2=C(C=C(C=C2)S(=O)(=O)NC(=O)C3=CC=C(C=C3)N4CCC(CC4)[C@H](C5=CC=CC=C5C6=CC=C(C=C6)Cl)O)S(=O)(=O)C(F)(F)F)CCO [AZD4320]; details: max 1 µM
Procedure, shortened: as §1

Alisertib = compound: COc1cc(Nc2ncc3c(n2)-c2ccc(Cl)cc2C(c2c(F)cccc2OC)=NC3)ccc1C(=O)O [Alisertib]; details: max 10 µM
Procedure, shortened: as §1

Gefitinib = compound: COc1cc2ncnc(Nc3ccc(F)c(Cl)c3)c2cc1OCCCN1CCOCC1 [Gefitinib]; details: max 10 µM
Procedure, shortened: as §1

Prexasertib = compound: COc1cccc(OCCCN)c1-c1cc(Nc2cnc(C#N)cn2)n[nH]1 [Prexasertib]; details: max 1 µM
Procedure, shortened: as §1

Doxorubicin = compound: COc1cccc2c1C(=O)c1c(O)c3c(c(O)c1C2=O)C[C@@](O)(C(=O)CO)C[C@@H]3O[C@H]1C[C@H](N)[C@H](O)[C@H](C)O1 [Doxorubicin]; details: max 1 µM
Procedure, shortened: as §1

AZD5153 = compound: COc1nnc2ccc(N3CCC(c4ccc(OCCN5CCN(C)C(=O)[C@H]5C)cc4)CC3)nn12 [AZD5153]; details: max 1 µM
Procedure, shortened: as §1

Lapatinib = compound: CS(=O)(=O)CCNCc1ccc(-c2ccc3ncnc(Nc4ccc(OCc5cccc(F)c5)c(Cl)c4)c3c2)o1 [Lapatinib]; details: max 10 µM
Procedure, shortened: as §1

AZD8186 = compound: C[C@@H](Nc1cc(F)cc(F)c1)c1cc(C(=O)N(C)C)cc2c(=O)cc(N3CCOCC3)oc12 [AZD8186]; details: max 3 µM
Procedure, shortened: as §1

Crizotinib = compound: C[C@@H](Oc1cc(-c2cnn(C3CCNCC3)c2)cnc1N)c1c(Cl)ccc(F)c1Cl [Crizotinib]; details: max 10 µM
Procedure, shortened: as §1

Savolitinib = compound: C[C@@H](c1ccc2nccn2c1)n1nnc2ncc(-c3cnn(C)c3)nc21 [Savolitinib]; details: max 1 µM
Procedure, shortened: as §1

AZD6738 = compound: C[C@@H]1COCCN1C2=NC(=NC(=C2)C3(CC3)[S@](=N)(=O)C)C4=C5C=CNC5=NC=C4 [AZD6738]; details: max 10 µM
Procedure, shortened: as §1

AZD5991 = compound: Cc1c2c(nn1C)CSCc1cc(n(C)n1)CSc1cc(c3ccccc3c1)OCCCc1c(C(=O)O)n(C)c3c-2c(Cl)ccc13 [AZD5991]; details: max 1 µM
Procedure, shortened: as §1

AZD7648 = compound: Cc1cc2ncnn2cc1Nc1ncc2c(n1)n(C1CCOCC1)c(=O)n2C [AZD7648]; details: max 10 µM
Procedure, shortened: as §1

Taselisib = compound: Cc1nc(-c2cn3c(n2)-c2ccc(-c4cnn(C(C)(C)C(N)=O)c4)cc2OCC3)n(C(C)C)n1 [Taselisib]; details: max 10 µM
Procedure, shortened: as §1

Selumetinib = compound: Cn1cnc2c(F)c(Nc3ccc(Br)cc3Cl)c(C(=O)NOCCO)cc21 [Selumetinib]; details: max 10 µM
Procedure, shortened: as §1

MK-2206 = compound: NC1(c2ccc(-c3nc4ccn5c(=O)[nH]nc5c4cc3-c3ccccc3)cc2)CCC1 [MK-2206]; details: max 10 µM
Procedure, shortened: as §1

Olaparib = compound: O=C(c1cc(Cc2n[nH]c(=O)c3ccccc23)ccc1F)N1CCN(C(=O)C2CC2)CC1 [Olaparib]; details: max 10 µM
Procedure, shortened: as §1

| Cell Line | IC50, cell viability 72 h (Capivasertib) | IC50, cell viability 72 h (AZD1775) | IC50, cell viability 72 h (Trametinib) | IC50, cell viability 72 h (Palbociclib) | IC50, cell viability 72 h (AZD1390) | IC50, cell viability 72 h (Venetoclax) | IC50, cell viability 72 h (Dasatinib) | IC50, cell viability 72 h (SG3199) | IC50, cell viability 72 h (AZD2811) | IC50, cell viability 72 h (SN-38) | IC50, cell viability 72 h (AZD0156) | IC50, cell viability 72 h (AZD4320) | IC50, cell viability 72 h (Alisertib) | IC50, cell viability 72 h (Gefitinib) | IC50, cell viability 72 h (Prexasertib) | IC50, cell viability 72 h (Doxorubicin) | IC50, cell viability 72 h (AZD5153) | IC50, cell viability 72 h (Lapatinib) | IC50, cell viability 72 h (AZD8186) | IC50, cell viability 72 h (Crizotinib) | IC50, cell viability 72 h (Savolitinib) | IC50, cell viability 72 h (AZD6738) | IC50, cell viability 72 h (AZD5991) | IC50, cell viability 72 h (AZD7648) | IC50, cell viability 72 h (Taselisib) | IC50, cell viability 72 h (Selumetinib) | IC50, cell viability 72 h (MK-2206) | IC50, cell viability 72 h (Olaparib) |
| --- | --- | --- | --- | --- | --- | --- | --- | --- | --- | --- | --- | --- | --- | --- | --- | --- | --- | --- | --- | --- | --- | --- | --- | --- | --- | --- | --- | --- |
| A2058 (Melanoma) | > 10000 nM | 1230 nM | 236 nM | > 10000 nM | > 300 nM | > 1000 nM | > 2000 nM | > 1 nM | > 1000 nM | > 300 nM | > 3000 nM | > 1000 nM | 1220 nM | > 10000 nM | > 1000 nM | > 1000 nM | 656 nM | 8410 nM | > 3000 nM | 8250 nM | > 1000 nM | > 10000 nM | > 1000 nM | > 10000 nM | 6330 nM | > 10000 nM | > 10000 nM | > 10000 nM |
| HCT-15 (Colorectal Carcinoma) | > 10000 nM | 544 nM | > 1000 nM | > 10000 nM | > 300 nM | > 1000 nM | 1730 nM | > 1 nM | > 1000 nM | 53.5 nM | > 3000 nM | > 1000 nM | 4210 nM | > 10000 nM | 139 nM | 619 nM | 227 nM | > 10000 nM | > 3000 nM | 7410 nM | > 1000 nM | 4000 nM | > 1000 nM | > 10000 nM | 3860 nM | > 10000 nM | – | > 10000 nM |
| HEC-1 (Endometrial Carcinoma) | > 10000 nM | 1810 nM | > 1000 nM | > 10000 nM | > 300 nM | > 1000 nM | > 2000 nM | > 1 nM | > 1000 nM | > 300 nM | > 3000 nM | > 1000 nM | > 10000 nM | > 10000 nM | 493 nM | > 1000 nM | 881 nM | > 10000 nM | > 3000 nM | > 10000 nM | > 1000 nM | > 10000 nM | > 1000 nM | > 10000 nM | > 10000 nM | > 10000 nM | – | > 10000 nM |
| KE-37 (T-Lymphoblastic Leukemia) | 1100 nM | 129 nM | > 1000 nM | 3850 nM | > 300 nM | > 1000 nM | > 2000 nM | > 1 nM | 20.5 nM | 1.86 nM | > 3000 nM | 28.3 nM | 125 nM | > 10000 nM | 4.58 nM | 53.8 nM | 210 nM | 8530 nM | > 3000 nM | 3220 nM | > 1000 nM | 403 nM | 267 nM | 8540 nM | 3110 nM | > 10000 nM | – | > 10000 nM |
| LB996-RCC (Kidney Carcinoma) | 5320 nM | 403 nM | > 1000 nM | > 10000 nM | > 300 nM | > 1000 nM | 188 nM | > 1 nM | > 1000 nM | 8.64 nM | > 3000 nM | > 1000 nM | 4590 nM | > 10000 nM | 167 nM | 625 nM | > 1000 nM | > 10000 nM | > 3000 nM | > 10000 nM | > 1000 nM | 9940 nM | > 1000 nM | > 10000 nM | 1740 nM | > 10000 nM | – | > 10000 nM |
| LN-229 (Glioblastoma) | > 10000 nM | > 3000 nM | > 1000 nM | > 10000 nM | > 300 nM | > 1000 nM | > 2000 nM | > 1 nM | > 1000 nM | > 300 nM | > 3000 nM | > 1000 nM | > 10000 nM | > 10000 nM | 70.1 nM | > 1000 nM | > 1000 nM | > 10000 nM | > 3000 nM | > 10000 nM | > 1000 nM | > 10000 nM | > 1000 nM | > 10000 nM | > 10000 nM | > 10000 nM | > 10000 nM | > 10000 nM |
| LXF-289 (Lung Adenocarcinoma) | > 10000 nM | 814 nM | > 1000 nM | > 10000 nM | > 300 nM | > 1000 nM | 171 nM | > 1 nM | > 1000 nM | > 300 nM | > 3000 nM | > 1000 nM | 3390 nM | > 10000 nM | 240 nM | > 1000 nM | 377 nM | 4860 nM | > 3000 nM | 4530 nM | > 1000 nM | > 10000 nM | > 1000 nM | > 10000 nM | > 10000 nM | > 10000 nM | – | > 10000 nM |
| NCI-H23 (Lung Adenocarcinoma) | > 10000 nM | 381 nM | 348 nM | > 10000 nM | > 300 nM | > 1000 nM | > 2000 nM | > 1 nM | > 1000 nM | 102 nM | > 3000 nM | > 1000 nM | 9990 nM | > 10000 nM | 59.6 nM | > 1000 nM | 208 nM | > 10000 nM | > 3000 nM | 5950 nM | > 1000 nM | 3270 nM | 319 nM | > 10000 nM | > 10000 nM | > 10000 nM | > 10000 nM | > 10000 nM |
